Reference: ChEMBL document CHEMBL1201861, “Genomics of Drug Sensitity in Cancer screening data, Wellcome Trust Sanger Institute”

Columns and labels:
Experiment in all cases: cells
AU565 = format: functional, cell-based, Homo sapiens; conditions: Homo sapiens, AU565;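 further: cell viability assay measuring growth inhibition of human AU565 cells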
Description: SANGER: Inhibition of human AU565 cell growth in a cell viability assay.

NCI-H596 = format: functional, cell-based, Homo sapiens; conditions: Homo sapiens, NCI-H596;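 further: growth inhibition of NCI-H596 cells, read out with a cell viability assay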
Description: SANGER: Inhibition of human NCI-H596 cell growth in a cell viability assay.

SW1710 = format: functional, cell-based, Homo sapiens; conditions: Homo sapiens, SW1710;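 further: growth inhibition of SW1710 cells, determined with a cell viability assay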
Description: SANGER: Inhibition of human SW1710 cell growth in a cell viability assay.

LB2518-MEL = format: functional, cell-based, Homo sapiens; conditions: Homo sapiens, LB2518-MEL;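 further: growth inhibition of human LB2518-MEL cells, measured with a cell viability assay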
Description: SANGER: Inhibition of human LB2518-MEL cell growth in a cell viability assay.

K562 = format: functional, cell-based; conditions: Homo sapiens
Description: SANGER: Inhibition of human K-562 cell growth in a cell viability assay.

VA-ES-BJ = format: functional, cell-based, Homo sapiens; conditions: Homo sapiens, VA-ES-BJ;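 further: growth inhibition of the VA-ES-BJ cell line, read out by a cell viability assay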
Description: SANGER: Inhibition of human VA-ES-BJ cell growth in a cell viability assay.

DoTc2-4510 = format: functional, cell-based, Homo sapiens; conditions: Homo sapiens, DoTc2-4510
EW-16 = format: functional, cell-based, Homo sapiens; conditions: Homo sapiens, EW-16;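 further: growth inhibition of human EW-16 cells, read out as cell viability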
Description: SANGER: Inhibition of human EW-16 cell growth in a cell viability assay.

NB69 = format: functional, cell-based, Homo sapiens; conditions: Homo sapiens, NB69;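 further: growth inhibition of NB69 cells, determined by a cell viability assay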
Description: SANGER: Inhibition of human NB69 cell growth in a cell viability assay.

T84 = format: functional, cell-based, Homo sapiens; conditions: Homo sapiens, T84;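 further: growth inhibition measured with a cell viability readout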
Description: SANGER: Inhibition of human T84 cell growth in a cell viability assay.

COR-L88 = format: functional, cell-based; conditions: Homo sapiens;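 further: growth inhibition of COR-L88 cells, read out with a cell viability assay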
Description: SANGER: Inhibition of human COR-L88 cell growth in a cell viability assay.

COR-L105 = format: functional, cell-based, Homo sapiens; conditions: Homo sapiens, COR-L105;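 further: cell growth inhibition determined with a viability assay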
Description: SANGER: Inhibition of human COR-L105 cell growth in a cell viability assay.

K5 = format: functional, cell-based, Homo sapiens; conditions: Homo sapiens, K5
Description: SANGER: Inhibition of human K5 cell growth in a cell viability assay.

ACHN = format: functional, cell-based, Homo sapiens; conditions: Homo sapiens, ACHN;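 further: cell viability read-out used to gauge how strongly growth of human ACHN cells is suppressed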
Description: SANGER: Inhibition of human ACHN cell growth in a cell viability assay.

ES3 = format: functional, cell-based, Homo sapiens; conditions: Homo sapiens, ES3;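 further: growth inhibition of ES3 cells, read out with a cell viability assay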
Description: SANGER: Inhibition of human ES3 cell growth in a cell viability assay.

NCI-H1650 = format: functional, cell-based, Homo sapiens; conditions: Homo sapiens, NCI-H1650;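 further: growth inhibition of human NCI-H1650 cells measured by a cell viability assay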
Description: SANGER: Inhibition of human NCI-H1650 cell growth in a cell viability assay.

SW1990 = format: functional, cell-based, Homo sapiens; conditions: Homo sapiens, SW1990;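 further: cell growth inhibition determined with a viability assay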
Description: SANGER: Inhibition of human SW1990 cell growth in a cell viability assay.

GP5d = format: functional, cell-based, Homo sapiens; conditions: Homo sapiens, GP5d;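 further: growth inhibition of human GP5d cells, read out with a cell viability assay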
Description: SANGER: Inhibition of human GP5d cell growth in a cell viability assay.

G-401 = format: functional, cell-based, Homo sapiens; conditions: Homo sapiens, G-401
Description: SANGER: Inhibition of human G-401 cell growth in a cell viability assay.

OAW-28 = format: functional, cell-based, Homo sapiens; conditions: Homo sapiens, OAW-28;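 further: growth inhibition of OAW-28 cells, read out with a cell viability assay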
Description: SANGER: Inhibition of human OAW-28 cell growth in a cell viability assay.

M14 = format: functional, cell-based, Homo sapiens; conditions: Homo sapiens, M14;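 further: growth inhibition of M14 cells, read out with a cell viability assay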
Description: SANGER: Inhibition of human M14 cell growth in a cell viability assay.

NCI-H23 = format: functional, cell-based, Homo sapiens; conditions: Homo sapiens, NCI-H23;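 further: cell viability assay measuring growth inhibition of NCI-H23 cells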
Description: SANGER: Inhibition of human NCI-H23 cell growth in a cell viability assay.

PANC-03-27 = format: functional, cell-based, Homo sapiens; conditions: Homo sapiens, PANC-03-27
Description: SANGER: Inhibition of human PANC-03-27 cell growth in a cell viability assay.

A 172 = format: functional, cell-based, Homo sapiens; conditions: Homo sapiens, A 172;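 further: growth inhibition of A172 cells, measured with a cell viability readout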
Description: SANGER: Inhibition of human A172 cell growth in a cell viability assay.

CP66-MEL = format: functional, cell-based, Homo sapiens; conditions: Homo sapiens, CP66-MEL;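 further: growth inhibition of CP66-MEL cells determined in a cell viability assay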
Description: SANGER: Inhibition of human CP66-MEL cell growth in a cell viability assay.

DMS-114 = format: functional, cell-based, Homo sapiens; conditions: Homo sapiens, DMS-114
MMAC-SF = format: functional, cell-based, Homo sapiens; conditions: Homo sapiens, MMAC-SF;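 further: growth inhibition of human MMAC-SF cells, read out with a cell viability assay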
Description: SANGER: Inhibition of human MMAC-SF cell growth in a cell viability assay.

NCI-H1563 = format: functional, cell-based, Homo sapiens; conditions: Homo sapiens, NCI-H1563;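 further: growth inhibition of human NCI-H1563 cells, read out with a cell viability assay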
Description: SANGER: Inhibition of human NCI-H1563 cell growth in a cell viability assay.

HD-MY-Z = format: functional, cell-based, Homo sapiens; conditions: Homo sapiens, HD-MY-Z;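 further: growth inhibition of HD-MY-Z cells, read out with a cell viability assay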
Description: SANGER: Inhibition of human HD-MY-Z cell growth in a cell viability assay.

NB13 = format: functional, cell-based, Homo sapiens; conditions: Homo sapiens, NB13;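 further: cell viability readout measuring growth inhibition of human NB13 cells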
Description: SANGER: Inhibition of human NB13 cell growth in a cell viability assay.

CAL-120 = format: functional, cell-based, Homo sapiens; conditions: Homo sapiens, CAL-120;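 further: cell growth inhibition, read out as cell viability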
Description: SANGER: Inhibition of human CAL-120 cell growth in a cell viability assay.

ASPC1 = format: functional, cell-based, Homo sapiens; conditions: Homo sapiens, ASPC1;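 further: growth inhibition of AsPC-1 cells, read out with a cell viability assay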
Description: SANGER: Inhibition of human AsPC-1 cell growth in a cell viability assay.

GI-1 = format: functional, cell-based, Homo sapiens; conditions: Homo sapiens, GI-1;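 further: growth inhibition of human GI-1 cells, measured with a cell viability readout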
Description: SANGER: Inhibition of human GI-1 cell growth in a cell viability assay.

DBTRG-05MG = format: functional, cell-based, Homo sapiens; conditions: Homo sapiens, DBTRG-05MG;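 further: cell viability assay measuring growth inhibition of human DBTRG-05MG cells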
Description: SANGER: Inhibition of human DBTRG-05MG cell growth in a cell viability assay.

UMUC3 = format: functional, cell-based, Homo sapiens; conditions: Homo sapiens, UMUC3;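 further: growth inhibition of human UM-UC-3 cells, read out with a cell viability assay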
Description: SANGER: Inhibition of human UM-UC-3 cell growth in a cell viability assay.

COLO-824 = format: functional, cell-based, Homo sapiens; conditions: Homo sapiens, COLO-824
Description: SANGER: Inhibition of human COLO-824 cell growth in a cell viability assay.

SF-268 = format: functional, cell-based, Homo sapiens; conditions: Homo sapiens, SF-268;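 further: growth inhibition of SF-268 cells determined with a cell viability assay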
Description: SANGER: Inhibition of human SF268 cell growth in a cell viability assay.

LB771-HNC = format: functional, cell-based, Homo sapiens; conditions: Homo sapiens, LB771-HNC;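 further: growth inhibition of LB771-HNC human cells, read out with a cell viability assay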
Description: SANGER: Inhibition of human LB771-HNC cell growth in a cell viability assay.

Huh-7 = format: functional, cell-based, Homo sapiens; conditions: Homo sapiens, Huh-7;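 further: HuH-7 cell growth inhibition, read out with a cell viability assay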
Description: SANGER: Inhibition of human HuH-7 cell growth in a cell viability assay.

SK-N-FI = format: functional, cell-based, Homo sapiens; conditions: Homo sapiens, SK-N-FI;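 further: cell viability assay measuring growth inhibition of human SK-N-FI cells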
Description: SANGER: Inhibition of human SK-N-FI cell growth in a cell viability assay.

IST-MES1 = format: functional, cell-based, Homo sapiens; conditions: Homo sapiens, IST-MES1;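 further: growth inhibition of IST-MES1 cells, measured with a cell viability assay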
Description: SANGER: Inhibition of human IST-MES1 cell growth in a cell viability assay.

CW-2 = format: functional, cell-based, Homo sapiens; conditions: Homo sapiens, CW-2;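 further: growth inhibition of CW-2 cells, read out by a cell viability assay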
Description: SANGER: Inhibition of human CW-2 cell growth in a cell viability assay.

HT-1376 = format: functional, cell-based, Homo sapiens; conditions: Homo sapiens, HT-1376
Description: SANGER: Inhibition of human HT-1376 cell growth in a cell viability assay.

MDA-MB-175-VII = format: functional, cell-based, Homo sapiens; conditions: Homo sapiens, MDA-MB-175-VII
NCI-N87 = format: functional, cell-based, Homo sapiens; conditions: Homo sapiens, NCI-N87;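 further: growth inhibition of human NCI-N87 cells, read out with a cell viability assay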
Description: SANGER: Inhibition of human NCI-N87 cell growth in a cell viability assay.

P30-OHK = format: functional, cell-based; conditions: Homo sapiens;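 further: growth inhibition of the P30-OHK cell line, read out with a cell viability assay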
Description: SANGER: Inhibition of human P30-OHK cell growth in a cell viability assay.

MN-60 = format: functional, cell-based; conditions: Homo sapiens;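 further: growth inhibition of the MN-60 cell line, determined with a cell viability assay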
Description: SANGER: Inhibition of human MN-60 cell growth in a cell viability assay.

U-118-MG = format: functional, cell-based, Homo sapiens; conditions: Homo sapiens, U-118-MG
Description: SANGER: Inhibition of human U-118-MG cell growth in a cell viability assay.

D-247MG = format: functional, cell-based, Homo sapiens; conditions: Homo sapiens, D-247MG
Description: SANGER: Inhibition of human D-247MG cell growth in a cell viability assay.

In the case of C[C@]1(O)C[C@@H](c2nc(-c3ccc4ccc(-c5ccccc5)nc4c3)c3c(N)nccn32)C1 [LINSITINIB], the IC50 (AU565) is reported as greater than 2560 nM, the IC50 (NCI-H596) is reported as greater than 2560 nM and the IC50 (SW1710) is reported as greater than 2560 nM. For the same compound, the IC50 (LB2518-MEL) was greater than 2560 nM, the IC50 (K562) was greater than 2560 nM and the IC50 (VA-ES-BJ) was greater than 2560 nM. The IC50 (DoTc2-4510) was greater than 2560 nM, the IC50 (EW-16) was 188 nM and the IC50 (NB69) was 583 nM. It also gave an IC50 (T84) of 1210 nM, an IC50 (COR-L88) greater than 2560 nM and an IC50 (COR-L105) greater than 2560 nM. The IC50 (K5) was greater than 2560 nM, the IC50 (ACHN) was greater than 2560 nM and the IC50 (ES3) was 1120 nM. The IC50 (NCI-H1650) was greater than 2560 nM, the IC50 (SW1990) was greater than 2560 nM and the IC50 (GP5d) was greater than 2560 nM. The IC50 (G-401) was 182 nM, the IC50 (OAW-28) was greater than 2560 nM and the IC50 (M14) was greater than 2560 nM. It also gave an IC50 (NCI-H23) greater than 2560 nM, an IC50 (PANC-03-27) greater than 2560 nM and an IC50 (A 172) greater than 2560 nM. It also gave an IC50 (CP66-MEL) of 2290 nM, an IC50 (DMS-114) greater than 2560 nM and an IC50 (MMAC-SF) greater than 2560 nM. For the same compound, the IC50 (NCI-H1563) was greater than 2560 nM, the IC50 (HD-MY-Z) was greater than 2560 nM and the IC50 (NB13) was greater than 2560 nM. For the same compound, the IC50 (CAL-120) was greater than 2560 nM, the IC50 (ASPC1) was greater than 2560 nM and the IC50 (GI-1) was greater than 2560 nM. It also gave an IC50 (DBTRG-05MG) greater than 2560 nM, an IC50 (UMUC3) greater than 2560 nM and an IC50 (COLO-824) greater than 2560 nM. It also gave an IC50 (SF-268) greater than 2560 nM, an IC50 (LB771-HNC) of 259 nM and an IC50 (Huh-7) of 1600 nM. The IC50 (SK-N-FI) was greater than 2560 nM, the IC50 (IST-MES1) was greater than 2560 nM and the IC50 (CW-2) was greater than 2560 nM. For the same compound, the IC50 (HT-1376) was greater than 2560 nM, the IC50 (MDA-MB-175-VII) was greater than 2560 nM and the IC50 (NCI-N87) was greater than 2560 nM. It also gave an IC50 (P30-OHK) greater than 2560 nM, an IC50 (MN-60) greater than 2560 nM and an IC50 (U-118-MG) greater than 2560 nM.

O=C(c1cc(Cc2n[nH]c(=O)c3ccccc23)ccc1F)N1CCN(C(=O)C2CC2)CC1 [OLAPARIB] was tested, and the IC50 (AU565) was greater than 5000 nM, the IC50 (NCI-H596) was greater than 5000 nM and the IC50 (SW1710) was greater than 5000 nM. It also gave an IC50 (LB2518-MEL) greater than 5000 nM, an IC50 (K562) greater than 5000 nM and an IC50 (VA-ES-BJ) greater than 5000 nM. It also gave an IC50 (DoTc2-4510) greater than 5000 nM, an IC50 (EW-16) greater than 5000 nM and an IC50 (NB69) greater than 5000 nM. It also gave an IC50 (T84) greater than 5000 nM, an IC50 (COR-L88) greater than 5000 nM and an IC50 (COR-L105) greater than 5000 nM. The IC50 (K5) was greater than 5000 nM, the IC50 (ACHN) was greater than 5000 nM and the IC50 (ES3) was greater than 5000 nM. For the same compound, the IC50 (NCI-H1650) was greater than 5000 nM, the IC50 (SW1990) was greater than 5000 nM and the IC50 (GP5d) was greater than 5000 nM. For the same compound, the IC50 (G-401) was greater than 5000 nM, the IC50 (OAW-28) was greater than 5000 nM and the IC50 (M14) was greater than 5000 nM. It also gave an IC50 (NCI-H23) greater than 5000 nM, an IC50 (PANC-03-27) greater than 5000 nM and an IC50 (A 172) greater than 5000 nM. It also gave an IC50 (DMS-114) greater than 5000 nM, an IC50 (MMAC-SF) greater than 5000 nM and an IC50 (NCI-H1563) greater than 5000 nM. For the same compound, the IC50 (HD-MY-Z) was greater than 5000 nM, the IC50 (NB13) was greater than 5000 nM and the IC50 (CAL-120) was greater than 5000 nM. It also gave an IC50 (ASPC1) greater than 5000 nM, an IC50 (GI-1) greater than 5000 nM and an IC50 (DBTRG-05MG) greater than 5000 nM. It also gave an IC50 (UMUC3) greater than 5000 nM, an IC50 (COLO-824) greater than 5000 nM and an IC50 (SF-268) greater than 5000 nM. The IC50 (LB771-HNC) was greater than 5000 nM, the IC50 (Huh-7) was greater than 5000 nM and the IC50 (SK-N-FI) was greater than 5000 nM. It also gave an IC50 (IST-MES1) greater than 5000 nM, an IC50 (CW-2) greater than 5000 nM and an IC50 (HT-1376) greater than 5000 nM. The IC50 (MDA-MB-175-VII) was greater than 5000 nM, the IC50 (NCI-N87) was greater than 5000 nM and the IC50 (P30-OHK) was greater than 5000 nM. The IC50 (MN-60) was greater than 5000 nM, the IC50 (U-118-MG) was greater than 5000 nM and the IC50 (D-247MG) was greater than 5000 nM.
